From patent US20250304939A1, “TAILORED ANTI-FUNGAL DRUGS AND TOOLS TO DIAGNOSE INVASIVE FUNGAL INFECTIONS” (priority 2022, published 2025)
Changes are numbered by the printed parent chain.

How the values were obtained:
A. fumigatus conidia [1] = test: Biotin-tagged 30 amino acid peptide binding to heat-inactivated conidia, FITC-streptavidin flow cytometry; parameters: species or system Aspergillus fumigatus; details: for peptide binding to A. fumigatus conidia: 5 μg/ml N-term biotin-tagged peptide, 1×10^7 heat-inactivated conidia/ml
Procedure: (§1) A 30 amino acid peptide comprising the KLMAR sequence was generated with an N-terminal biotin-tag. […] 5 μg/ml of the N-term biotin-tagged peptides were incubated with 1×10^7 heat-inactivated conidia/ml from different Aspergillus species and from fungi belonging to the Mucorales order. The peptide binding was subsequently detected with a FITC-coupled streptavidin using flow cytometry (Beckman Coulter, Gallios).
Three 30 amino acid peptides from the CCP2 domain of MASP-1 were generated with an N-terminal biotin-tag. CCP2 Ctrl.Pep1: […], CCP2 Ctrl.Pep2: […], CCP2 Ctrl.Pep3: […]. 5 and 10 μg/ml of the N-term biotin-tagged peptides were incubated with 1×10^7 heat-inactivated A. fumigatus conidia/ml and the peptide binding was detected with a FITC-coupled streptavidin using flow cytometry (BD, Celesta).
5 μg/ml of the N-term biotin-tagged peptides with C→S mutations at position 7 (C7S), position 11 (C11S) and both positions (C7S+C11S) were incubated with 1×10^7 heat-inactivated A. fumigatus conidia/ml. The peptide binding was subsequently detected with a FITC-coupled streptavidin using flow cytometry (BD, Celesta).
5 μg/ml of the N-term biotin-tagged MASP-1 peptide were incubated with 1×10^7 heat-inactivated A. fumigatus conidia/ml in barbital buffer (containing Ca2+) with or without 20 mM EDTA that chelates the calcium. The peptide binding was subsequently detected with a FITC-coupled streptavidin using flow cytometry (Beckman Coulter, Gallios).
The binding of the MASP-1 peptide was compared to the binding of a MASP-3 peptide covering the same protein region and thus having partly overlapping amino acid sequences. MASP-1 peptide: […] (SEQ ID NO: 1). MASP-3 peptide: […] (SEQ ID NO: 3). 5 μg/ml of the N-term biotin-tagged peptides were incubated with 1×10^7 heat-inactivated A. fumigatus conidia/ml. The peptide binding was subsequently detected with a FITC-coupled streptavidin using flow cytometry (Beckman Coulter, Gallios).

A. niger = test: Biotin-tagged peptide binding to heat-inactivated conidia, flow cytometry; parameters: species or system Aspergillus niger; details: 5 μg/ml
Procedure: as §1

A. terreus = test: as above; parameters: species or system Aspergillus terreus; details: 5 μg/ml
Procedure: as §1

A. flavus = test: as above; parameters: species or system Aspergillus flavus; details: 5 μg/ml
Procedure: as §1

Lichtemia corymbifera = test: as above; details: 5 μg/ml
Procedure: as §1

Mucor circinelloides = test: as above; details: 5 μg/ml
Procedure: as §1

Rhizopus arrhizus = test: as above; details: 5 μg/ml
Procedure: as §1

HMEC-1 cells = test: Peptide binding to human cells, flow cytometry; details: 5 μg/ml; 1×10^7 cells/ml
Procedure: (§2) 5 μg/ml of the N-term biotin-tagged MASP-1 peptide was incubated with THP-1 and HMEC-1 cells (1×10^7 cells/ml). The peptide binding was subsequently detected with a FITC-coupled streptavidin using flow cytometry (Beckman Coulter, Gallios).

THP-1 cells = test: Peptide binding to human cells, flow cytometry; details: 5 μg/ml; 1×10^7 cells/ml
Procedure: as §2

Aspergillus fumigatus = test: Recombinant MASP-1 binding to A. fumigatus growth stages, fluorescence microscopy; details: 5 μg/ml, resting conidia, swollen conidia, germ tubes and hyphae
Procedure: MASP-1 binding was tested on the different growth stages of A. fumigatus. First, the A. fumigatus conidia were incubated on microscopy glass slides for 0, 4, 8 and 16 hours to obtain resting conidia, swollen conidia, germ tubes and hyphae. Recombinant MASP-1 was then added in a concentration of 5 μg/ml and binding was detected with a pan anti-MASP-1/-3/MAP-1 monoclonal antibody 8B3 and Alexa fluor 488-coupled goat anti-mouse antibody. […] This is very surprising since until now, MASP-1 is known only to interact with endogenous pattern recognition molecules (PRMs) and not so-called pathogen-associated molecular patterns (PAMPs).
MASP-1, a serine protease from the complement system, binds directly to various pathogenic fungi, for example, Aspergillus fumigatus and this knowledge can be utilized to design a targeted antifungal compound. MASP-1 binding was tested on the different growth stages of A. fumigatus. First, the A. fumigatus conidia were incubated on microscopy glass slides for 0, 4, 8 and 16 hours to obtain resting conidia, swollen conidia, germ tubes and hyphae. Recombinant MASP-1 was then added in a concentration of 5 μg/ml and binding was detected with a pan anti-MASP-1/-3/MAP-1 monoclonal antibody 8B3 and Alexa fluor 488-coupled goat anti-mouse antibody.

A. fumigatus conidia [2] = test: rMASP-1 (wild-type/mutated) binding to heat-inactivated conidia, flow cytometry; parameters: species or system Aspergillus fumigatus; details: 5 μg/ml, 1×10^7 heat-inactivated conidia/ml
Procedure: A. fumigatus conidia were heat-inactivated (15 min 121° C.) to eliminate contamination in the laboratory. 1×10^7 conidia/ml were incubated with 5 μg/ml recombinant wild-type MASP-1 (^444KLMAR^448) or mutated rMASP-1 (^444DDDDK^448). The binding of MASP-1 was detected using 10 μg/ml of a pan anti-MASP-1/-3/MAP-1 monoclonal antibody 8B3 followed by a FITC-conjugated goat anti-mouse polyclonal antibody. Binding was measured as the mean fluorescence intensity using flow cytometry (Beckman Coulter, Gallios).
The experiment in this example 2A was performed using the method as described in example 2.

## MASP-1 peptide: 30 amino acid MASP-1 peptide GRSLPTCLPVCGLPKFSRKLMARIFNGRPA (SEQ ID NO: 1)
A. fumigatus conidia [1]
  peptide binding to A. fumigatus conidia: successfully bound
A. fumigatus conidia [1]; 5 μg/ml, barbital buffer (containing Ca2+) without EDTA
  peptide binding to A. fumigatus conidia with calcium: bound equally well
A. fumigatus conidia [1]; 5 μg/ml, barbital buffer with 20 mM EDTA
  peptide binding to A. fumigatus conidia without calcium: bound equally well
A. fumigatus conidia [1]; 5 and 10 μg/ml, heat-inactivated conidia, BD Celesta
  peptide binding to A. fumigatus conidia (median fluorescence intensity), CCP2 domain comparison: bound
A. niger
  peptide binding to A. niger conidia: successfully bound
A. terreus
  peptide binding to A. terreus conidia: successfully bound
A. flavus
  peptide binding to A. flavus conidia: successfully bound
Lichtemia corymbifera
  peptide binding to Lichtemia corymbifera conidia: successfully bound
Mucor circinelloides
  peptide binding to Mucor circinelloides conidia: successfully bound
Rhizopus arrhizus
  peptide binding to Rhizopus arrhizus conidia: successfully bound
HMEC-1 cells
  peptide binding to HMEC-1 endothelial cell line: did not show any binding
THP-1 cells
  peptide binding to THP-1 monocytic cell line: did not show any binding

## MASP-3 peptide: 30 aa MASP-3 peptide covering the same protein region, GRSLPTCLPECGQPSRSLPSLVKRIIGGRN (SEQ ID NO: 3) (listed as Homo sapiens) [reference compound]
A. fumigatus conidia [1]
  peptide binding to A. fumigatus conidia: did not bind
HMEC-1 cells
  peptide binding to HMEC-1 endothelial cell line: Neither of the 30 aa MASP peptides bind
THP-1 cells
  peptide binding to THP-1 monocytic cell line: Neither of the 30 aa MASP peptides bind

B1: wild-type rMASP-1 (^444KLMAR^448): recombinant wild-type MASP-1, a serine protease from the complement system, containing 444KLMAR448 (protein, UniProt P48740 20-699, looked up)
Mannan-binding lectin serine …: HTVELNNMFGQIQSPGYPDSYPSDSEVTWNITVPDGFRIKLYFMHFNLESSYLCEYDYVKVETEDQVLATFCGRETTDTEQTPGQEVVLSPGSFMSITFRSDFSNEERFTGFDAHYMAVDVDECKEREDEELSCDHYCHNYIGGYYCSCRFGYILHTDNRTCRVECSDNLFTQRTGVITSPDFPNPYPKSSECLYTIELEEGFMVNLQFEDIFDIEDHPEVPCPYDYIKIKVGPKVLGPFCGEKAPEPISTQSHSVLILFHSDNSGENRGWRLSYRAAGNECPELQPPVHGKIEPSQAKYFFKDQVLVSCDTGYKVLKDNVEMDTFQIECLKDGTWSNKIPTCKIVDCRAPGELEHGLITFSTRNNLTTYKSEIKYSCQEPYYKMLNNNTGIYTCSAQGVWMNKVLGRSLPTCLPVCGLPKFSRKLMARIFNGRPAQKGTTPWIAMLSHLNGQPFCGGSLLGSSWIVTAAHCLHQSLDPEDPTLRDSDLLSPSDFKIILGKHWRLRSDENEQHLGVKHTTLHPQYDPNTFENDVALVELLESPVLNAFVMPICLPEGPQQEGAMVIVSGWGKQFLQRFPETLMEIEIPIVDHSTCQKAYAPLKKKVTRDMICAGEKEGGKDACAGDSGGPMVTLNRERGQWYLVGTVSWGDDCGKKDRYGVYSYIHHNKDWIQRVTGVRN
Aspergillus fumigatus
  recombinant MASP-1 binding to A. fumigatus growth stages: binding was detected for all growth stages
A. fumigatus conidia [2]
  binding of rMASP-1 to A. fumigatus conidia (mean fluorescence intensity): binds

B2: mutated rMASP-1 (^444DDDDK^448): recombinant MASP-1 in which 444KLMAR448 was substituted by DDDDK (SEQ ID NO: 4), activated version (protein, UniProt P48740 20-699, looked up, variant K444D L445D M446D A447D R448K)
Mannan-binding lectin serine …: B1 Mannan-binding lectin serine … with K425D, L426D, M427D, A428D, R429K
modifications: activated
A. fumigatus conidia [2]
  binding of rMASP-1 to A. fumigatus conidia (mean fluorescence intensity): did not bind
A. fumigatus conidia [2]; listed as active mutated rMASP-1
  binding of rMASP-1 to A. fumigatus conidia (mean fluorescence intensity): Neither the active nor zymogen mutated rMASP-1 (44^4DDDDK^448) bound

B3: zymogen mutated rMASP-1: zymogen version of the mutated rMASP-1 (444DDDDK448) (protein, UniProt P48740 20-699, looked up, variant K444D L445D M446D A447D R448K)
pro-form: B1 Mannan-binding lectin serine … with K425D, L426D, M427D, A428D, R429K
modifications: pro-form zymogen, enterokinase site
A. fumigatus conidia [2]
  binding of rMASP-1 to A. fumigatus conidia (mean fluorescence intensity): Neither the active nor zymogen mutated rMASP-1 (44^4DDDDK^448) bound
